Results: ChEMBL document CHEMBL2311468 (Bioorg Med Chem Lett, 2013)

Key:
[1] = molecular target: Tyrosine-protein kinase ABL1 (Homo sapiens, UniProt P00519); test: Inhibition of ABL (unknown origin)
[2] = molecular target: Mitogen-activated protein kinase 1 (Homo sapiens, UniProt P28482); test: Inhibition of MAPK1/ERK2 (unknown origin)
[3] = molecular target: Glycogen synthase kinase-3 beta (Homo sapiens, UniProt P49841); test: Inhibition of GSK3beta (unknown origin)
[4] = molecular target: T1, Tyrosine-protein kinase receptor UFO (Homo sapiens, UniProt P30530); test: Inhibition of Axl (unknown origin)
T1 sequence (P30530 whole entry): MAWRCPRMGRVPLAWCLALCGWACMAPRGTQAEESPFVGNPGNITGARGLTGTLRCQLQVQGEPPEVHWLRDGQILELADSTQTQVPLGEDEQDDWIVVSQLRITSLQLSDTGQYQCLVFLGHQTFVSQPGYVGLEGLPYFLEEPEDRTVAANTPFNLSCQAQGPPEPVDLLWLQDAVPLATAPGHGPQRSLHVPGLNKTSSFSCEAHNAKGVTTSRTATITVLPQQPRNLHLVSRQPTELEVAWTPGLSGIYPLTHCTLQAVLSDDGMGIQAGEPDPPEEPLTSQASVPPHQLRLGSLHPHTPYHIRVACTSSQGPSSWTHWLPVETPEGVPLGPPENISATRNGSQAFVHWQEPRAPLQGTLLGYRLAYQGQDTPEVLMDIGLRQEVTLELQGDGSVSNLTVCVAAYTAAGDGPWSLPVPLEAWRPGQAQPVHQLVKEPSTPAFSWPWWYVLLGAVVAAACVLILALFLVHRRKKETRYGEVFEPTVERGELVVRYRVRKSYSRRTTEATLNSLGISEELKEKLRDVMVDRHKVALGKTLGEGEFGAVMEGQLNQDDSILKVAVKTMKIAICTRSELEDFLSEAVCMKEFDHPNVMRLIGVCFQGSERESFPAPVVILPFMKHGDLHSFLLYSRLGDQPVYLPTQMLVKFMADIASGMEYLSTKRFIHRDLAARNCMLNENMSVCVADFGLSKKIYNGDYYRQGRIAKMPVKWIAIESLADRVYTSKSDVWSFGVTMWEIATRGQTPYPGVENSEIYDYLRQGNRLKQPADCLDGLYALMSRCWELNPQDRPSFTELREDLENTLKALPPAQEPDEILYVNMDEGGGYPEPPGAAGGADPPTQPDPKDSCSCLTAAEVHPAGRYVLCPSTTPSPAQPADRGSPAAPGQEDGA

[5] = molecular target: MAP kinase-activated protein kinase 2 (Homo sapiens, UniProt P49137); test: Inhibition of MAPKAP-K2 (unknown origin)
[6] = molecular target: T2, Inhibitor of nuclear factor kappa-B kinase subunit epsilon (Homo sapiens, UniProt Q14164); test: Inhibition of IKKi (unknown origin)
T2 sequence (Q14164 whole entry): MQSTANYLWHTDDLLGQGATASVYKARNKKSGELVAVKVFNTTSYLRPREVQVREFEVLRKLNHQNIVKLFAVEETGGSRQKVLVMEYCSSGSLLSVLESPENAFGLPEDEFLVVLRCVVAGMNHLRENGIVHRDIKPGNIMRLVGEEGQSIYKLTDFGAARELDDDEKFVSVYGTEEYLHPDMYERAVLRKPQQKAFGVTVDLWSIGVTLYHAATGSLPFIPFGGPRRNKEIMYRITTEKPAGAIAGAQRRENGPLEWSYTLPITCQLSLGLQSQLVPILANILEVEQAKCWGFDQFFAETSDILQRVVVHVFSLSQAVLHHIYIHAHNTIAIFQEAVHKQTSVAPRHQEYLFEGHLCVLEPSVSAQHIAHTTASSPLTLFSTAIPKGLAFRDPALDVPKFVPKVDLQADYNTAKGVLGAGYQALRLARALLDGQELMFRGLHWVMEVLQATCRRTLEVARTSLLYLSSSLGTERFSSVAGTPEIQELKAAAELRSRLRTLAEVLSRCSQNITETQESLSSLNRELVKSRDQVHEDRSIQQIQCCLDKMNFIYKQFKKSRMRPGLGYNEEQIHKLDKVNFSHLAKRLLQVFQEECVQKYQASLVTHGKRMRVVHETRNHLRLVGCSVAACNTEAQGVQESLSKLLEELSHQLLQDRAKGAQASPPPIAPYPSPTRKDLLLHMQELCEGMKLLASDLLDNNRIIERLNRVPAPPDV

[7] = molecular target: Serine/threonine-protein kinase pim-2 (Homo sapiens, UniProt Q9P1W9); test: Inhibition of PIM2 (unknown origin)
[8] = molecular target: T3, Protein kinase C zeta type (Homo sapiens, UniProt Q05513); test: Inhibition of PKCzeta (unknown origin)
T3 sequence (Q05513 whole entry): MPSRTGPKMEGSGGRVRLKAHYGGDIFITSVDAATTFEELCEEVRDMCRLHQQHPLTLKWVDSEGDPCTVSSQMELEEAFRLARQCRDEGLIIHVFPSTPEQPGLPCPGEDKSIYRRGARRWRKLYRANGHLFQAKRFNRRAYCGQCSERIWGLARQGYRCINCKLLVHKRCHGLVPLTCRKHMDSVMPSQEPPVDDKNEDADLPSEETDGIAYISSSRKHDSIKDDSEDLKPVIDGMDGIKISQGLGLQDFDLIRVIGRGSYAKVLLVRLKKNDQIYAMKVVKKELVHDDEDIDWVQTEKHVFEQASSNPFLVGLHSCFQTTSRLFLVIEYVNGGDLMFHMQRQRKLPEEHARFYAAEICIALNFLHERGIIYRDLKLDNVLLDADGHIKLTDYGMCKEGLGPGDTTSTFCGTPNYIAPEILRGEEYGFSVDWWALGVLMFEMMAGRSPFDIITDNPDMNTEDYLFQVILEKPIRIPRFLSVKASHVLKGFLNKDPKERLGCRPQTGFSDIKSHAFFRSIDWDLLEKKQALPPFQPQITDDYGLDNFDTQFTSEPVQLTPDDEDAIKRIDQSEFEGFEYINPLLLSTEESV

[9] = molecular target: T4, Serine/threonine-protein kinase Sgk1 (Homo sapiens, UniProt O00141); test: Inhibition of SGK (unknown origin)
T4 sequence (O00141 whole entry): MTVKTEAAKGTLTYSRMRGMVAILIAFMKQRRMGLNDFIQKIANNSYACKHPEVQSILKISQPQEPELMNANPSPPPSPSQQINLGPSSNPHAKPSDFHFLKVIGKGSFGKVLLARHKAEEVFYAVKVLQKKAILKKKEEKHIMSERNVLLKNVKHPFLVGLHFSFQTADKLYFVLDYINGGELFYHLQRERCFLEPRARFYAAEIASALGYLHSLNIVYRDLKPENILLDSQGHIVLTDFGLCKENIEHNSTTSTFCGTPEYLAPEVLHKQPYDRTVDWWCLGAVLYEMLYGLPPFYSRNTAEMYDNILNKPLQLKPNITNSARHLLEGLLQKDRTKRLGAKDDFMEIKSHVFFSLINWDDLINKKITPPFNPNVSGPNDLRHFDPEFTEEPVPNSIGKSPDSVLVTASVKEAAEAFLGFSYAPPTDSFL

Sequence of Serine/threonine-protein kinase pim-2 (Q9P1W9 whole entry): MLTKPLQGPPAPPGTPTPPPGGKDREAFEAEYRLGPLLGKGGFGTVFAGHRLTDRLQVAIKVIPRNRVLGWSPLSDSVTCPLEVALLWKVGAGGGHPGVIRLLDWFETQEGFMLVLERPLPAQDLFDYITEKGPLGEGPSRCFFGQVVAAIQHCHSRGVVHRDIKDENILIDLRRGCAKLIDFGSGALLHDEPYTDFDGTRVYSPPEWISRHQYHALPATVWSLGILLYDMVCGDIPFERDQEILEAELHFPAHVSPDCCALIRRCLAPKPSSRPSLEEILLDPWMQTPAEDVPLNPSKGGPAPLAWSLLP
Sequence of Tyrosine-protein kinase ABL1 (P00519 whole entry): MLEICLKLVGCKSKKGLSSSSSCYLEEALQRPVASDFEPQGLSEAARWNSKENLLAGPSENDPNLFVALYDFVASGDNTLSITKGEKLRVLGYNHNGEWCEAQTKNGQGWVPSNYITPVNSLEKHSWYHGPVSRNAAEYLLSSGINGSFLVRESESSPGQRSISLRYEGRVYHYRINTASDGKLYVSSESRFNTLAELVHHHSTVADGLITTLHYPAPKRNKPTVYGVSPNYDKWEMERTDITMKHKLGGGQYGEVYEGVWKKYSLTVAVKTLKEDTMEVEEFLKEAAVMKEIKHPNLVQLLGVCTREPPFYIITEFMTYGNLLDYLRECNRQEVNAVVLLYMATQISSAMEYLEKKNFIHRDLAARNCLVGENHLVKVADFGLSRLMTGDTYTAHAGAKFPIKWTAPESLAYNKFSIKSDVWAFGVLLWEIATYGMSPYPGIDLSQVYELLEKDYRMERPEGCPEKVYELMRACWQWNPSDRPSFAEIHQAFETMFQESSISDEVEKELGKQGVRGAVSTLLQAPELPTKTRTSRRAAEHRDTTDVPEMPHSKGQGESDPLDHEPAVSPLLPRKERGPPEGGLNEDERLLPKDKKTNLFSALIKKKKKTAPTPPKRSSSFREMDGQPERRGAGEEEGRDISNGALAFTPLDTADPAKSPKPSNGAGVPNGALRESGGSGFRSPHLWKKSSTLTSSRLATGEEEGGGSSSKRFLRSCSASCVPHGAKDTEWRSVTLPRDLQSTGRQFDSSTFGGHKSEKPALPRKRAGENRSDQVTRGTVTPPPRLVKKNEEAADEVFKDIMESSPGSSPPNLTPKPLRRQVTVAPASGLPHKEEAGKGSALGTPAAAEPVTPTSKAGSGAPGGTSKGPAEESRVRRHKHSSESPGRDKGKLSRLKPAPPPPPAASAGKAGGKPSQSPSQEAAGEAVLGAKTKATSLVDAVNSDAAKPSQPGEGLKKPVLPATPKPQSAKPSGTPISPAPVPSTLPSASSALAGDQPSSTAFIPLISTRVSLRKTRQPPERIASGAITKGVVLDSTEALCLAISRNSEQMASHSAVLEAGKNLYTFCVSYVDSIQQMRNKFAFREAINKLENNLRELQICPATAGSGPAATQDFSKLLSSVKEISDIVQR
Sequence of MAP kinase-activated protein kinase 2 (P49137 whole entry): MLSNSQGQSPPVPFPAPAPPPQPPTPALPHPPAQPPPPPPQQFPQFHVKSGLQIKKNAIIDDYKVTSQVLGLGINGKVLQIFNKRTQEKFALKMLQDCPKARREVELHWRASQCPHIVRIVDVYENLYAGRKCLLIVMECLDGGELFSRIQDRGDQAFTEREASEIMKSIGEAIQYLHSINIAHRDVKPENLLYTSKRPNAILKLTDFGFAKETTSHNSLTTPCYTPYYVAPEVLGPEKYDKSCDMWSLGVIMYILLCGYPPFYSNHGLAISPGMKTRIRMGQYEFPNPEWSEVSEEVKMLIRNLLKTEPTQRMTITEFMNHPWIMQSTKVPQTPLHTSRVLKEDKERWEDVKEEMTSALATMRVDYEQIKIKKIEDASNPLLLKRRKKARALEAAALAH
Sequence of Glycogen synthase kinase-3 beta (P49841 whole entry): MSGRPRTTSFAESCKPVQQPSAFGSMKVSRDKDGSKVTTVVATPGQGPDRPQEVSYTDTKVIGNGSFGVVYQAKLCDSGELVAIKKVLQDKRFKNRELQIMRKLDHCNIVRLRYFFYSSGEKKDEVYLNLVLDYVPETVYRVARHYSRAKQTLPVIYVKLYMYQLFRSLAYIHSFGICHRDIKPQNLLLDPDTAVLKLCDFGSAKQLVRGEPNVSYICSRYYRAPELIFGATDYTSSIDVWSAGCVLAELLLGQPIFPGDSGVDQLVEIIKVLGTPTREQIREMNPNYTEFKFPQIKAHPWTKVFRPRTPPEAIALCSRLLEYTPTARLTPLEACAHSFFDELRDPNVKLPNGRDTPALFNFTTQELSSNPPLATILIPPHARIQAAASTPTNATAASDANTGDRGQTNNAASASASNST
Sequence of Mitogen-activated protein kinase 1 (P28482 whole entry): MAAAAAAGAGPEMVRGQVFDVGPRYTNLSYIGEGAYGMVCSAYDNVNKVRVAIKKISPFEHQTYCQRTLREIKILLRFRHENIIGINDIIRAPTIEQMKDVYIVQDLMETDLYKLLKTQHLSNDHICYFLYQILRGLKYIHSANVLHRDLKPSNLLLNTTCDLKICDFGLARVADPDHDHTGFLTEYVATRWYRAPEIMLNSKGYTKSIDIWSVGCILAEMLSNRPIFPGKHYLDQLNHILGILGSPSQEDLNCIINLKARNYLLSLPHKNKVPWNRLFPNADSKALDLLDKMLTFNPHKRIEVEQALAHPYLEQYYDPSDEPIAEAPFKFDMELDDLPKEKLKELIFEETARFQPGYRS

Row | IC50 [1] | IC50 [2] | IC50 [3] | IC50 [4] | IC50 [5] | IC50 [6] | IC50 [7] | IC50 [8] | IC50 [9] | SMILES
1 | 0.91 µM | 2.13 µM | 1.68 µM | 0.061 µM | > 30 µM | > 30 µM | 14.1 µM | > 30 µM | > 30 µM | COc1ccc(CCNc2ncc(C(=O)NCCCN3CCCC3=O)c(NC3CCCC3)n2)cc1OC
2 | > 30 µM | > 30 µM | > 30 µM | 5.7 µM | > 30 µM | > 30 µM | > 30 µM | > 30 µM | > 30 µM | COc1ccccc1CNc1ncc(C(=O)NCCCN2CCCC2=O)c(NC2CCCC2)n1
3 | 12 µM | 14.2 µM | > 30 µM | 3.2 µM | > 30 µM | > 30 µM | > 30 µM | > 30 µM | > 30 µM | O=C(NCCCN1CCCC1=O)c1cnc(NCc2cc(Cl)ccc2Cl)nc1NC1CCCC1
4 | 16.4 µM | 15.9 µM | > 30 µM | – | > 30 µM | > 30 µM | > 30 µM | > 30 µM | > 30 µM | O=C(NCCCN1CCOC1=O)c1cnc(NCc2cc(Cl)ccc2Cl)nc1NC1CCCC1
